{"source": "patent US20210371491A1", "about": "“CHIMERIC ANTIGEN RECEPTORS THAT BIND TO PROSTATE SPECIFIC MEMBRANE ANTIGEN” (Albert-Ludwigs-Universitaet Freiburg, priority 2018, published 2021)", "tested_on": "C4-2^luc+ tumor xenografts", "test": "Treatment of C4-2^luc+ tumor xenografts by docetaxel chemotherapy plus intravenous CAR T cells (Example 12)", "type": "in vivo, mice", "description": "(A) Schematic of combined chemotherapy with intravenous CAR T cell therapy. Tumor engraftment was established in animals by subcutaneous injection of 1.5×10^6 cells. Chemotherapy had started at day 1 of the treatment for 3 days by intraperitoneal injection of docetaxel (DOC, 6 mg/kg bw). 48 hours after the last chemotherapy cycle, mice were injected intravenously with single doses of 5×10^6 CAR28 (n=3) or CAR41 T cells (n=3). Control mice were injected with docetaxel alone (n=3) or left untreated (control, n=4). Tumors were visualized via BLI until the end of treatment at day 17. D, day; i.v, intravenous injection; i.p, intraperitoneal; s.c, subcutaneous.\n(B) Antitumor activity of CAR28 and CAR41 T cells in combination with docetaxel chemotherapy. Mice with subcutaneously growing C4-2^luc+ tumors (200-250 mm^3) were intraperitoneally injected with docetaxel (DOC; 6 mg/kg bw) on days 1, 2, and 3 of treatment. 48 hours later mice were additionally injected with a single dose of 5×10^6 CAR28 (n=3) or CAR41 T cells (n=3) intravenously. Tumor growth was monitored by BLI. […] Statistical significant differences are indicated by *p<0.05.\nMice with large C4-2^luc+ tumor xenografts (200-250 mm^3) were intraperitoneally injected with 3 daily cycles of docetaxel (DOC, 6 mg/kg bw on days 1, 2, and 3 of treatment) (FIG. 9A). 48 hours after the last cycle, mice were intravenously injected with only one dose of 5×10^6 CAR28 (n=3) CAR41 T cells (n=3), or PBS (n=3) respectively (FIG. 9A). Control animals (n=4) remained completely untreated. Tumor growth was monitored by BLI as described above. […] Compared to the control group (1817.5±165.5 mm^3) tumor end volumes of 338.2±355.6 mm^3 for mice treated with DOC alone and of 599.9±317.2 mm^3 for mice treated with DOC+CAR28 were reached on day 17 (FIG. 9C). […] A mean tumor volume of 50.2±71.0 mm^3 was determined (FIG. 9C).", "note": "Several values for one entry are separate records, joined by “and”; a condition that tells them apart may be missing. Equal values may be shown once.", "data": [{"smiles": "CC(=O)O[C@@]12CO[C@@H]1C[C@H](O)[C@@]1(C)C(=O)[C@H](O)C3=C(C)[C@@H](OC(=O)[C@H](O)[C@@H](NC(=O)OC(C)(C)C)c4ccccc4)C[C@@](O)([C@@H](OC(=O)c4ccccc4)[C@H]21)C3(C)C", "note": "[DOC, docetaxel]", "values": [{"measurement": "tumor growth compared to control group (in words)", "setting": "DOC 6 mg/kg bw days 1-3 ± CAR T cells i.v.", "value": "inhibition of tumor growth"}, {"measurement": "partial remission (PR), mice", "setting": "DOC 6 mg/kg bw i.p. days 1-3, CAR T cells 5×10^6 i.v. 48 h later, tumors 200-250 mm^3", "value": "⅔"}, {"measurement": "mean tumor volume", "setting": "day 17, DOC 6 mg/kg bw days 1-3 ± CAR T cells i.v.", "value": "338.2±355.6 mm^3 and 338.3±355.6 mm^3"}]}]}
